Data on four compounds can be found in ChEMBL document CHEMBL1150505 (Bioorg Med Chem Lett, 1994).

Test [1] concerns the target Leukotriene B4 receptor 1 (Homo sapiens, UniProt Q15722). The experiment in a line: LTB4 receptor antagonist activity was determined by inhibition of specific binding of [3H]LTB4 in human neutrophil.
The species named for another test is Homo sapiens. The experiment in a line: Compound was tested for Leukotriene B4-mediated Up-regulation of human neutrophil CD11b/CD18. It counts as functional.
Test [2] is described as follows: LTB4 receptor antagonist activity was determined by inhibition of specific binding of [3H]LTB4 in guinea pig lung membranes.

Molecules are shown by their SMILES.

Leukotriene B4 receptor 1, sequence (Q15722 whole entry): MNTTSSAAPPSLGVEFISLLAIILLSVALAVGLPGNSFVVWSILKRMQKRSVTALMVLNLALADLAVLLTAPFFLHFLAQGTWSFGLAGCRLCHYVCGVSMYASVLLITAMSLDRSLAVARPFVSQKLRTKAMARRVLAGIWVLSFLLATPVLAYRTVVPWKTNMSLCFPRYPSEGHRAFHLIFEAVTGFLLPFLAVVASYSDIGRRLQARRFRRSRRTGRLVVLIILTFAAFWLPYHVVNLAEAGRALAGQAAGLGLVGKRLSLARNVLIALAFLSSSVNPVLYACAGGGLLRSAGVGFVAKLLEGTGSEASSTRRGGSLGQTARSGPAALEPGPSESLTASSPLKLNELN

Broadly, the Ki is a measure of affinity in units of concentration, obtained from inhibition or displacement. Higher therefore signals lower affinity. What is called IC50 is the midpoint of a concentration-inhibition curve. A low value points to higher potency. `CCc1cc(-c2ccc(F)cc2)c(O)cc1OCCCOc1cc(Oc2ccc(C(=O)O)cc2)ccc1CCC(=O)O` displayed a Ki in test [1] of 39 nM. For the same compound, 1800 nM corresponded to half-maximal inhibition in the test filed under Homo sapiens (IC50).
In the case of `CCc1cc(-c2ccc(F)cc2)c(O)cc1OCCCOc1cccc(Oc2ccc(C(=O)O)cc2)c1CCC(=O)O`, in the test filed under Homo sapiens, half-maximal inhibition (IC50) was put at 2.6 nM.
On the same count and under the same terms, then `CCc1cc(-c2ccc(F)cc2)c(O)cc1OCCCOc1ccc(C#CCCC(=O)O)cc1CCC(=O)O`, with 4.7 nM.
On to `CCc1cc(-c2ccc(F)cc2)c(O)cc1OCCCOc1ccc2c(=O)c3cc(C(=O)O)ccc3oc2c1CCC(=O)O`, for which the Ki in test [2] was found to be 0.04 nM.
